Laboratory results taken from US11370801B2, “Pyrrolobenzodiazepine conjugates” (priority 2017, dated 2022).

Key:
NCI-N87 = assay: Therapeutic index: MTD in rat / MED in mouse efficacy model; assay type: in vivo; conditions: ADC of the drug linker
Method: The therapeutic index of each ADC/drug linker was calculated using the following equation: TI=MTD in rat (mg/kg)/MED in mouse efficacy model (mg/kg)

[1] = in vitro cytotoxicity, picomolar region; cited from earlier work

Compound	NCI-N87 MED (NCI-N87)	cytotoxic potency relative to DSB-120 [1]
COc1cc2c(cc1OCCCOc1cc3c(cc1OC)C(=O)N1CCC[C@H]1[C@H](O)N3C(=O)OCc1ccc(NC(=O)[C@H](C)NC(=O)[C@@H](NC(=O)CCOCCOCCOCCOCCOCCOCCOCCOCCNC(=O)CCN3C(=O)C=CC3=O)C(C)C)cc1)N=C[C@@H]1CCCN1C2=O [Compound 1, 4-((2S,5S)-37-(2,5-dioxo-2,5-dihydro-1H-pyrrol-1-yl)-5-isopropyl-2-methyl-4,7,35-trioxo-10,13,16,19,22,25,28,31-octaoxa-3,6,34-triazaheptatriacontanamido)benzyl(11S,11aS)-11-hydroxy-7-methoxy-8-(3-(((S)-7-methoxy-5-oxo-2,3,5,11a-tetrahydro-1H-pyrrolo[2,1-c][1,4]benzodiazepin-8-yl)oxy)propoxy)-5-oxo-2,3,11,11a-tetrahydro-1H-pyrrolo[2,1-c][1,4]benzodiazepine-10(5H)-carboxylate]	6 mg/kg	–
COc1cc2c(cc1OCCCOc1cc3c(cc1OC)C(=O)N1CCC[C@H]1[C@H](O)N3C(=O)OCc1ccc(NC(=O)[C@H](C)NC(=O)[C@@H](NC(=O)CCOCCOCCOCCOCCOCCOCCOCCOCCNC(=O)CCN3C(=O)C=CC3=O)C(C)C)cc1)N=C[C@@H]1CCCN1C2=O [Compound 2, 4-((2S,5S)-37-(2,5-dioxo-2,5-dihydro-1H-pyrrol-1-yl)-5-isopropyl-2-methyl-4,7,35-trioxo-10,13,16,19,22,25,28,31-octaoxa-3,6,34-triazaheptatriacontanamido)benzyl(11S,11aS)-11-hydroxy-7-methoxy-8-(3-(((S)-7-methoxy-5-oxo-2,3,5,11a-tetrahydro-1H-pyrrolo[2,1-c][1,4]benzodiazepin-8-yl)oxy)propoxy)-5-oxo-2,3,11,11a-tetrahydro-1H-pyrrolo[2,1-c][1,4]benzodiazepine-10(5H)-carboxylate]	2 mg/kg	–
COc1cc2c(cc1OCc1cccc(COc3cc4c(cc3OC)C(=O)N3CCC[C@H]3[C@H](O)N4C(=O)OCc3ccc(NC(=O)[C@H](C)NC(=O)[C@@H](NC(=O)CCOCCOCCOCCOCCOCCOCCOCCOCCNC(=O)CCN4C(=O)C=CC4=O)C(C)C)cc3)c1)N=C[C@@H]1CCCN1C2=O [Compound 3, 4-((2S,5S)-37-(2,5-dioxo-2,5-dihydro-1H-pyrrol-1-yl)-5-isopropyl-2-methyl-4,7,35-trioxo-10,13,16,19,22,25,28,31-octaoxa-3,6,34-triazaheptatriacontanamido)benzyl (11S,11aS)-11-hydroxy-7-methoxy-8-((3-((((S)-7-methoxy-5-oxo-2,3,5,11a-tetrahydro-1H-benzo[e]pyrrolo[1,2-a][1,4]diazepin-8-yl)oxy)methyl)benzyl)oxy)-5-oxo-2,3,11,11a-tetrahydro-1H-benzo[e]pyrrolo[1,2-a][1,4]diazepine-10(5H)-carboxylate]	1 mg/kg	–
C=C1C[C@H]2C=Nc3cc(OCCCOc4cc5c(cc4OC)C(=O)N4CC(=C)C[C@H]4C=N5)c(OC)cc3C(=O)N2C1 [SG2000]	–	~9000 fold
